Source: patent US11058781B2, “Diazacarbazole derivatives as tau-PET-ligands” (Hoffmann-La Roche Inc., priority 2013, dated 2021)

Columns and labels:
native tau aggregates = test: TAU radioligand in-vitro displacement assay ([3H]T808 autoradiography on AD brain sections); format: binding; details: human AD brain sections; radioligand [3H]T808 10 nM; 50 mM Tris pH 7.4, room temperature, 30 min
Protocol: This in vitro binding assay assesses the affinity of compounds for native tau aggregates. The compounds are co-incubated with the well-established tau specific radioligand [^3H]T808 and the compound's displacement potency of [^3H]T808 binding is determined by in vitro autoradiography using human Alzheimer's disease (AD) brain sections (see FIG. 2).
AD human brains are purchased from Banner Sun Health Research Institute (Sun City, Ariz., USA). Pathological diagnosis of AD is made according to standard NIA-Reagan Institute criteria based on neuropathological data. The radioligand [^3H]T808 was synthesized in-house ([^3H]-2-[4-(2-Fluoro-ethyl)-piperidin-1-yl]-benzo[4,5]imidazo[1,2-a]pyrimidine, radiochemical purity 99.0%). […] For the autoradiography FujiFilm Imaging Plates (BAS-IP TR 2025) are exposed to the sections and read with a FujiFilm IP reader (BAS-5000). […]
The signal intensity (Dens−PSL/mm2) in the region of interest (ROI) of the autoradiogram is quantified with the software MCID analysis (version 7.0, Imaging Research Inc.). The specific binding (SB) of [^3H]T808 binding in absence or in presence of a compound is calculated by subtracting the non-specific binding signal in the white matter, thus yielding SB[3H]T808 only and SBcompound. The % displacement by the various compounds is calculated as following: % displacement=100−(SBcompound/SB[3H]T808 only)*100. […]

tau aggregates = test: Autoradiogram of the tritiated radioligand on a human cortical brain section (Braak V AD patient); format: binding; details: radioligand concentration 3.2 nM, Braak V staged AD patient
Protocol: FIG. 1: Autoradiogram of ^3H-2-(6-fluoro-pyridin-3-yl)-9H-dipyrido[2,3-b;3′,4′-d]pyrrole.
Autoradiogram of ^3H-2-(6-fluoro-pyridin-3-yl)-9H-dipyrido[2,3-b;3′,4′-d]pyrrole incubated with a human cortical brain section obtained from a Braak V staged AD patient. The radioligand concentration was 3.2 nM.

Sequence of tau aggregates (P10636 623-708 limits assumed): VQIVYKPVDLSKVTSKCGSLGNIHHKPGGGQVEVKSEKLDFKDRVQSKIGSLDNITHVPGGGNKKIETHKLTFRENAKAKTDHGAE

| % displacement of [^3H]T808 (10 nM) (native tau aggregates) [%] | Molecule | staining pattern in autoradiogram (tau aggregates) |
| --- | --- | --- |
| 43 | Fc1ccc(-c2ccc3c(n2)[nH]c2ccncc23)cn1 [Example 1, 2-(6-Fluoro-pyridin-3-yl)-9H-dipyrido[2,3-b;3′,4′-d]pyrrole] | – |
| – | ^3H-2-(6-Fluoro-pyridin-3-yl)-9H-dipyrido[2,3-b;3′,4′-d]pyrrole [Example 2] | punctate staining of tau aggregates in a layered distribution pattern |
